The values below come from patent US20250276996A1, “CATIONICALLY-ENFRAMED HIGH DENSITY AROMATIC PEPTIDES” (Research Foundation of the City University of New York, priority 2022, published 2025).

“Also recorded” adds a separate entry of the source. Non-standard residues stand in square brackets, D forms with d. Residues, ends and D or L forms follow the SMILES beside them. *: point of attachment. Biotin = O=C1N[C@H]2[C@H](CS[C@H]2CCCCC(=O)*)N1

Data set [1] is described as follows: Nile Red fluorescence shift in POPC liposomes. It counts as binding. How it is done:
(§1) The resulting multilamellar vesicles were vortexed lightly and sized into small unilamellar vesicles by heated bath sonication for 25 min. All liposomes were cooled to ambient temperature before use.
Interactions between biotin-HDAP2 and Phospholipid liposomes measured by Nile Red fluorescence: The hydrophobicity of biotin-HDAP2 and phospholipids was examined by changes in the spectral fluorescence shift and intensity of Nile Red (NR, 10 μM). NR increases its intensity of fluorescence when combined with the hydrophobic environments of acyl chains of phospholipids, and produces a blue shift when hydrophobicity is increased. All experiments were done with 30 μM of either CL or POPC and 30 μM of biotin-HDAP2 in 10 mM Hepes (pH 7.4) to optimize the electrostatic interactions of peptides with phospholipids. The solvents used to dissolve the various phospholipids (chloroform, methanol, and ethanol) had negligible effects on the fluorescence spectra.

Another data set concerns MDBK cells. The data set is described as follows: Uptake and intracellular localization of biotin-HDAP2 (streptavidin staining). It counts as cell-based, bovine. The note with it: for cellular uptake and intracellular localization: 37° C., up to 1 h. On the procedure:
Biotin-HDAP2 was studied using Madin-Darby Bovine Kidney Epithelial cell line (MDBK). Monolayers of cells were grown on 6-well plates for 3 days. On day 4, cells were washed twice with pre-warmed DMEM, and then incubated with 0.2 ml of DMEM containing 10 μM biotin-HDAP2 at 37° C. for up to 1 h. Cells were then washed and fixed in 4% paraformaldehyde and biotin-HDAP2 was detected using Alexa FLUOR™ 488 streptavidin. Cells were also co-stained with MitoTracker-Red or DAPI to identify […] or nuclei, respectively. Cells were then visualized in a fluorescent microscope (Nikon Eclipse-ci-SRS).
Biotin-HDAP2 was studied using Madin-Darby Bovine Kidney Epithelial cell line (MDBK). Monolayers of cells were grown on 6-well plates for 3 days. On day 4, cells were washed twice with pre-warmed DMEM, and then incubated with 0.2 ml of DMEM containing 10 μM biotin-HDAP2 at 37° C. for up to 1 h. Cells were then washed and fixed in 4% paraformaldehyde and biotin-HDAP2 was detected using Alexa FLUOR™ 488 streptavidin. Cells were also co-stained with MitoTracker-Red to identify mitochondria. Cells were then visualized using a fluorescent microscope (Nikon Eclipse-ci-SRS).
Biotin-HDAP2 uptake: To assess uptake of biotin-HDAP2 into cells, cultures were incubated in serum-free media for three days to deplete endogenous biotin (Birk et al., 2013) and then treated with biotin-HDAP2 (1 μM) for one hour. Cells were fixed with 4% paraformaldehyde and incubated for one hour with Alexa Fluor 594 conjugated streptavidin (1:100, Jackson ImmunoResearch) to localize the peptide within the cells, Hoechst 33342 (10 μg/ml, Novus) to label nuclei, and Mito Tracker Red CMXRos (MTR; 50 nM, Invitrogen) to identify mitochondria; MTR binds to thiol groups, which are heavily concentrated in the mitochondrial matrix. Cells were rinsed and imaged immediately in the dish using a Nikon Eclipse 50i fluorescent microscope with a 40× immersion objective (NA 0.8).
Intracellular Localization of biotin-HDAP2: Intracellular targeting of biotin-HDAP2 was determined by incubating MDBK cells (ATCC-CCL22) that were grown in biotin-free media for 72 hours, with 10 μM of N-biotinylated biotin-HDAP2 for 1 hour. Cells were then fixed with 4% paraformaldehyde, permeabilized with 0.1% Triton X-100, and treated with streptavidin conjugated with Alexa Fluor 488 (SA) for 30 minutes at room temperature. […]
SA fluorescence was normalized to Hoechst fluorescence to account for differences in cell number in each field. The intensity of SA fluorescence was measured in each field, using the “Analyze” feature in ImageJ to compute the mean pixel intensity (in arbitrary fluorescence units) from the images. […]

A short description of data set [2]: Displacement of nonyl acridine orange (NAO) from POPC-CL liposomes. It counts as binding, bovine. How it is done: as §1
Interaction of biotin-HDAP2 Peptide with Phospholipids: The ability of biotin-HDAP2 to displace nonyl acridine orange (NAO), a fluoroprobe known to selectively bind CL was determined. Interaction of biotin-HDAP2 with phospholipids was examined by measuring changes in the fluorescence spectra of 3 μM NAO (Molecular Devices, Sunnyvale, CA)) with excitation at 480 nm. CL and POPC in liposomes were use at 30 μM. Dose response curves were done with 30 μM CL, biotin-HDAP2 (0, 2.5, 5, 10, 20, and 30 μM), and 3 μM of NAO (ex/em at 480 nm/520 nm). All experiments were done in 10 mM Hepes (pH 7.4) to optimize electrostatic interactions of peptides with phospholipids.

The test system of data set [3] is retinal ganglion cells and optic nerve. The data set can be described thus: Optic nerve protection with elevated intraocular pressure. It counts as in vivo, DBA/2J mice. On the procedure: A series of experiments were conducted to determine if biotin-HDAP2 preserves mitochondrial ultrastructure in retinal ganglion cells (RGC) axons, whether biotin-HDAP2 preserves the integrity of axons in the optic nerve and/or whether biotin-HDAP2 treatment improves RGC survival. To these ends, 100 DBA/2J mice (8 and 12 weeks old) were obtained with the goal of studying them at 6 and 12 months of age. A small number of animals were examined at 6 months, but they had not yet developed elevated intraocular pressure (IOP), and no differences were observed between treatment conditions in optic nerve appearance or retinal ganglion cell distribution. Therefore, further analysis was delayed until animals reached 10 months, when elevated IOP was reliably present.
Optic nerves from all three experimental conditions (control, untreated and biotin-HDAP2-treated) have been embedded for ultrastructural analysis.
Nerves were obtained from 10-month-old animals who had high IOP for at least 3 consecutive months. Differences between control, untreated and biotin-HDAP2-treated groups were striking and correlated closely with cumulative intraocular pressure (cIOP) exposure.
All retinas in this study were stained with RBPMS, imaged using confocal microscopy, and RGCs were automatically counted using ImageJ. To assess the overall effect of biotin-HDAP2 treatment on RGC survival, RGC counts between biotin-HDAP2-treated and Untreated animals were compared across all available time points.

Turning to `N=C(N)NCCC[C@@H](NC(=O)[C@H](Cc1ccccc1)NC(=O)[C@H](Cc1ccccc1)NC(=O)[C@@H](CCCNC(=N)N)NC(=O)CCCC[C@@H]1SC[C@@H]2NC(=O)N[C@@H]21)C(N)=O` [biotin-HDAP2, Biotin-dArg-Phe-Phe-dArg-NH2] (Biotin-[dR]FF[dR]-NH2), in data set [1], the “Nile Red shift” value is listed as “no shift could be detected”. The “cellular uptake and intracellular localization” value in the data set on MDBK cells (10 μM) is on record as “targets mitochondria; also recorded: penetrates cell membranes”; with MDBK cells (10 μM, listed as Biotin-HDAP2), “primarily localized to the cytoplasmic compartment; also recorded: taken into mitochondria; also recorded: co-localized with MitoTracker-Red”. For the same compound, the “speed of entry into the cell compared with biocytin” value with MDBK cells (10 μM, 1 hour, serum-starved MDBK cells) is “about 6 times”. Moreover, in the data set on MDBK cells (MDBK cells, streptavidin AF 488), the “level of biotin-HDAP2 in cells relative to endogenous biotin” value is recorded as more than 10 ×. Further, in data set [2], the “effect on intensity of NAO fluorescence” value is recorded as “decreased the intensity of NAO fluorescence to background levels; also recorded: decreases the intensity of NAO fluorescence with POPC-CL liposomes in a dose-dependent manner”. The “optic nerve axon morphology” value in data set [3] (10-month-old animals, high IOP at least 3 months) is “morphologically comparable to those of young controls”. For the same compound, the “RGC counts (mean)” value in data set [3] (all available time points, n=23) was 26,267±14,440. The “RGC counts compared with other groups” value in data set [3] (elevated cIOP) is reported as “significantly higher RGC counts overall; also recorded: RGC counts similar to controls”. The “mitochondrial ultrastructure in RGC axons (TEM)” value in data set [3] (nerves exposed to high IOP) was “more numerous and exhibit preserved cristae and greater structural integrity”.
